Experimental data reported in publication PMC7373766, “In vitro and in vivo Evaluation of in silico Predicted Pneumococcal UDPG:PP Inhibitors” (Frontiers in Microbiology, 2020).

Assays:
L. monocytogenes = system: L. monocytogenes; design: method as in Kuenemann et al., 2018; conditions: previous research; ref Kuenemann et al., 2018; cited from earlier work
[1] = Cytotoxicity assay (resazurin); format: cell-based; conditions: human, MRC-5 cells, maximal tested concentration 64 μM
Protocol: MRC-5 cells were grown into polystyrene 96-well plates at an initial concentration of 1.5 × 10^5 cells/mL cells per well and incubated at 37°C and 5% CO2. In each well, 190 μL of cell suspension was added together with 10 μL of watery compound dilutions. Cell growth was compared to untreated control wells (100% cell growth) and medium-control wells (0% cell growth). After 3 days of incubation, cell viability was assessed using resazurin as described earlier. […] Tamoxifen was used as a positive control.

S. pneumoniae = test: Galleria mellonella killing assay; format: in vivo
Protocol: Larvae were purchased from a local vendor (Anaconda Reptiles, Kontich, Belgium) and stored in wood chips at 15°C before use. Four hours before use, larvae were put at 4°C. A sterile 20 μL Hamilton syringe was used to inject 10 μL aliquots of bacterial suspensions into the hindmost left proleg of Galleria mellonella. Bacteria were grown mid logarithmic phase for 6 h with or without 1, 10, 50 or 200 μM compounds, washed and resuspended in PBS before infection. The control group was injected with 10 μL PBS. A minimum of 10 larvae per group was used. Following the injections, larvae were incubated at 37°C in the dark for several days to allow progression of the pneumococcal infection. Every 24 h, larvae were scored as dead or alive. Larvae were determined dead when no signs of movement could be observed in response to external stimuli. For each strain, at least four independent repeats were carried out.

[2] = system: S. pneumoniae polysaccharide capsule / bacterial size; test: FITC-dextran exclusion assay (degree of encapsulation); format: cell-based
Protocol: The degree of encapsulation was determined by measuring the zone of exclusion of FITC-dextran (200 kDa, Sigma-Aldrich), as described previously ([Gates et al., 2004]; [Weinberger et al., 2009]; [Cools et al., 2018]). Briefly, bacteria were grown as described earlier until logarithmic phase with or without 50 μM of compound, centrifuged for 5 min at 5000 g and resuspended in PBS. To 100 μL of bacterial suspension 20 μL FITC-dextran (10 μg/mL in water) was added and 10 μL of this suspension was subsequently used to create wet mounts with cover slips. The slides were viewed on a Zeiss Observer.Z1 microscope with a 100x objective, and fluorescent images were captured with a Zeiss AxioCam MRm camera. The images were converted into grayscale and analyzed using ImageJ software. The area of FITC exclusion was determined. For each fluorescent image, a brightfield image was also recorded in order to count the number of bacteria per chain. For each strain, the mean of 150–300 cells was determined, and at least two images were collected from each of at least two independently prepared slides.

SMILES	Activity on L. monocytogenes (L. monocytogenes)	CC50 at 3 days [1]	Effect on larval survival, dose-response (S. pneumoniae; strain TIGR4 grown with 1 μM compound)	Effect on larval survival, dose-response (S. pneumoniae; strain TIGR4 grown with 10 μM compound)	Effect on larval survival, dose-response (S. pneumoniae; strain TIGR4 grown with 50 μM compound)	Effect on larval survival, dose-response (S. pneumoniae; strain TIGR4 grown with 200 μM compound)	Effect on bacterial size (area of FITC-dextran exclusion) ([2]; strain R6, 50 μM of compound)	Effect on bacterial size (area of FITC-dextran exclusion) ([2]; strain M23 galU mutant, 50 μM of compound)
NCCCOc1cccc(C(=O)NC2CCC(n3cc(F)c(=O)[nH]c3=O)C(O)C2O)c1 (centres unmarked) [BDG 33920985]	active	43.7 µM	–	–	–	–	–	–
NCCOc1cccc(C(=O)NC2CCCC(n3ccc(=O)[nH]c3=O)C2O)c1 (centres unmarked) [BDH 33910157]	active	> 64 µM	inactive	inactive	significantly improved larval survival	significantly improved larval survival	no effect	–
NCCCOc1cccc(C(=O)NC2CCCC(n3cnc4c(N)ncnc43)C2O)c1 (centres unmarked) [BDH 33910188]	–	> 64 µM	–	–	–	–	–	no effect
